Results taken from publication PMC5897141 (Journal of neurochemistry, 2018).
pKi: −log10 of the molar value. “And” between values parts separate entries of the source, which are not always exact repeats. Equal values may be shown once. Read-outs that look alike come from different tables or passages of the source.

Key:
[1] = HPLC radio-metabolite analysis of arterial plasma; assay type: in vivo, cynomolgus macaques
VAChT [2] = settings: Lassen plot, baseline vs (-)-vesamicol 0.125 mg/kg; subject A
VAChT [3] = assay: Test-retest reproducibility of BPND; assay type: in vivo, cynomolgus macaques; settings: mean ± SD, 3 NHP subjects
σ1/2 receptors = settings: ref Tu et al. 2015; cited from earlier work
VAChT [4] = settings: ref Tu et al. 2015; cited from earlier work
VAChT [5] = assay type: in vivo, cynomolgus macaques; settings: mean ± SD, n = 3
[6] = after 20 min p.i., 3 NHP subjects

For `O=C(c1ccc(F)cc1)C1CCN(C2Cc3c(cccc3OCCF)CC2O)CC1` (single isomer, unassigned; (-)) [[^18F]VAT, ((-)-(1-(-8-(2-fluoroethoxy)-3-hydroxy-1,2,3,4-tetrahydronaphthalen-2-yl)piperidin-4-yl)(4-fluorophenyl)-methanone)], the “percentile of unmetabolized parental tracer in plasma” value ([1]; 2 min post-injection) was 96% ± 1, the “percentile of unmetabolized parental tracer in plasma” value ([1]; 90 min post-injection) was 14% ± 2.7 and the “parent tracer as share of total radioactivity in plasma” value [1, 6] was “over 60%”. The “polar metabolites as share of total radioactivity in plasma” value [1, 6] was ~ 40%, the “time of peak concentration of parental compound in plasma” value ([1]; post-injection) was “less than 1 min” and the “VND (non-displaceable distribution volume)” value (VAChT [2]) was ~ 1.27. The “retest BPND” value (VAChT [3]; LoganREF, frontal cortex) was 0.29 ± 0.08, the “test BPND” value (VAChT [3]; LoganREF, frontal cortex) was 0.29 ± 0.06 and the “retest BPND” value (VAChT [3]; LoganREF, hippocampus) was 0.47 ± 0.19. For the same compound, the “test BPND” value (VAChT [3]; LoganREF, hippocampus) was 0.46 ± 0.18, the “retest BPND” value (VAChT [3]; LoganREF, striatum) was 2.26 ± 0.46 and the “test BPND” value (VAChT [3]; LoganREF, striatum) was 2.39 ± 0.73. The “retest BPND” value (VAChT [3]; LoganREF, thalamus) was 0.74 ± 0.09, the “test BPND” value (VAChT [3]; LoganREF, thalamus) was 0.70 ± 0.10 and the “retest BPND” value (VAChT [3]; SRTM, frontal cortex) was 0.30 ± 0.03. The “test BPND” value (VAChT [3]; SRTM, frontal cortex) was 0.32 ± 0.07, the “retest BPND” value (VAChT [3]; SRTM, hippocampus) was 0.48 ± 0.14 and the “test BPND” value (VAChT [3]; SRTM, hippocampus) was 0.46 ± 0.16. For the same compound, the “retest BPND” value (VAChT [3]; SRTM, striatum) was 2.15 ± 0.38, the “test BPND” value (VAChT [3]; SRTM, striatum) was 2.38 ± 0.69 and the “retest BPND” value (VAChT [3]; SRTM, thalamus) was 0.77 ± 0.12. For the same compound, the “test BPND” value (VAChT [3]; SRTM, thalamus) was 0.77 ± 0.13, the “selectivity for VAChT versus σ1/2 receptors” value (σ1/2 receptors) was “over 10,000 fold” and the pKi (VAChT [4]) was 9.23. The BPND (VAChT [5]; 1TCM, striatum) was 2.69 ± 1.1 (24%), the DVR (VAChT [5]; 1TCM, striatum) was 3.70 ± 1.1 (17%) and the K1 (VAChT [5]; 1TCM, striatum) was 0.221 ± 0.20 (52%) mL·cm^−3·min^−1. For the same compound, the VT (VAChT [5]; 1TCM, striatum) was 22.12 ± 14.1 (37%) mL· cm^−3, the k2 (VAChT [5]; 1TCM, striatum) was 0.009 ± 0.004 (26%) min^−1 and the “BPND = DVR-1” value (VAChT [5]; 2TCM, cerebellum-hemispheres (reference region)) was 0.00 ± 0.00. The K1 (VAChT [5]; 2TCM, cerebellum-hemispheres) was 0.144 ± 0.093 mL·cm^−3·min^−1, the VT (VAChT [5]; 2TCM, cerebellum-hemispheres) was 5.85 ± 5.88 mL· cm^−3 and the k2 (VAChT [5]; 2TCM, cerebellum-hemispheres) was 0.063 ± 0.010 min⁻¹. For the same compound, the k3 (VAChT [5]; 2TCM, cerebellum-hemispheres) was 0.007 ± 0.005 min⁻¹, the “k3 / k4” value (VAChT [5]; 2TCM, cerebellum-hemispheres) was 1.09 ± 0.84 and the k4 (VAChT [5]; 2TCM, cerebellum-hemispheres) was 0.004 ± 0.003 min⁻¹. The “BPND = DVR-1” value (VAChT [5]; 2TCM, frontal cortex) was 0.44 ± 0.10, the K1 (VAChT [5]; 2TCM, frontal cortex) was 0.103 ± 0.046 mL·cm^−3·min^−1 and the VT (VAChT [5]; 2TCM, frontal cortex) was 7.13 ± 6.52 mL· cm^−3. The k2 (VAChT [5]; 2TCM, frontal cortex) was 0.035 ± 0.004 min⁻¹, the k3 (VAChT [5]; 2TCM, frontal cortex) was 0.010 ± 0.012 min⁻¹ and the “k3 / k4” value (VAChT [5]; 2TCM, frontal cortex) was 0.94 ± 0.64. The k4 (VAChT [5]; 2TCM, frontal cortex) was 0.004 ± 0.001 min⁻¹, the “BPND = DVR-1” value (VAChT [5]; 2TCM, hippocampus) was 0.61 ± 0.41 and the K1 (VAChT [5]; 2TCM, hippocampus) was 0.102 ± 0.059 mL·cm^−3·min^−1. It also gave a VT (VAChT [5]; 2TCM, hippocampus) of 7.46 ± 5.56 mL· cm^−3, a k2 (VAChT [5]; 2TCM, hippocampus) of 0.035 ± 0.008 min⁻¹ and a k3 (VAChT [5]; 2TCM, hippocampus) of 0.014 ± 0.010 min⁻¹. The “k3 / k4” value (VAChT [5]; 2TCM, hippocampus) was 1.15 ± 0.62, the k4 (VAChT [5]; 2TCM, hippocampus) was 0.014 ± 0.013 min⁻¹ and the “BPND = DVR-1” value (VAChT [5]; 2TCM, midbrain) was 0.18 ± 0.13. For the same compound, the K1 (VAChT [5]; 2TCM, midbrain) was 0.107 ± 0.091 mL·cm^−3·min^−1, the VT (VAChT [5]; 2TCM, midbrain) was 5.61 ± 4.55 mL· cm^−3 and the k2 (VAChT [5]; 2TCM, midbrain) was 0.039 ± 0.009 min⁻¹. For the same compound, the k3 (VAChT [5]; 2TCM, midbrain) was 0.007 ± 0.003 min⁻¹, the “k3 / k4” value (VAChT [5]; 2TCM, midbrain) was 1.06 ± 0.30 and the k4 (VAChT [5]; 2TCM, midbrain) was 0.006 ± 0.001 min⁻¹. The “BPND = DVR-1” value (VAChT [5]; 2TCM, occipital cortex) was 0.12 ± 0.075, the K1 (VAChT [5]; 2TCM, occipital cortex) was 0.101 ± 0.054 mL·cm^−3·min^−1 and the VT (VAChT [5]; 2TCM, occipital cortex) was 5.51 ± 4.97 mL· cm^−3. The k2 (VAChT [5]; 2TCM, occipital cortex) was 0.039 ± 0.005 min⁻¹, the k3 (VAChT [5]; 2TCM, occipital cortex) was 0.004 ± 0.001 min⁻¹ and the “k3 / k4” value (VAChT [5]; 2TCM, occipital cortex) was 0.82 ± 0.53. The k4 (VAChT [5]; 2TCM, occipital cortex) was 0.005 ± 0.001 min⁻¹, the DVR (VAChT [5]; 2TCM, striatum) was 4.37 ± 0.34 (4%) and the K1 (VAChT [5]; 2TCM, striatum) was 0.113 ± 0.068 (35%) mL·cm^−3·min^−1 and 0.113 ± 0.068 mL·cm^−3·min^−1. For the same compound, the VT (VAChT [5]; 2TCM, striatum) was 22.31 ± 20.7 (54%) mL· cm^−3 and 22.31 ± 20.71 mL· cm^−3, the k2 (VAChT [5]; 2TCM, striatum) was 0.027 ± 0.005 (11%) min^−1 and 0.027 ± 0.005 min^−1 and the k3 (VAChT [5]; 2TCM, striatum) was 0.019 ± 0.009 (27%) min^−1 and 0.019 ± 0.009 min^−1. The “k3 / k4” value (VAChT [5]; 2TCM, striatum) was 3.52 ± 1.14, the k4 (VAChT [5]; 2TCM, striatum) was 0.005 ± 0.001 (12%) min^−1 and 0.005 ± 0.001 min^−1 and the “BPND = DVR-1” value (VAChT [5]; 2TCM, temporal cortex) was 0.097 ± 0.076. For the same compound, the K1 (VAChT [5]; 2TCM, temporal cortex) was 0.086 ± 0.042 mL·cm^−3·min^−1, the VT (VAChT [5]; 2TCM, temporal cortex) was 5.23 ± 4.45 mL· cm^−3 and the k2 (VAChT [5]; 2TCM, temporal cortex) was 0.033 ± 0.003 min⁻¹. For the same compound, the k3 (VAChT [5]; 2TCM, temporal cortex) was 0.003 ± 0.001 min⁻¹.
